Laboratory results published in patent US11845724B2, “USP30 inhibitors and uses thereof” (Vincere Biosciences, Inc., priority 2019, dated 2023).
Like-named read-outs stand apart in the source and are kept apart here.

Assays:
USP30 = USP30 (Homo sapiens (Human), UniProt Q70CQ3); experiment: Dundee MALDI-TOF mass spectrometry assay (IC50); format: biochemical; conditions: USP30 25 ng/μl, K48-linked diubiquitin 5.6 μM, avg, read-out: Dundee IC50 μM (avg in vitro MS assay)
Description: Compounds were tested in a MALDI-TOF assay based on the paper by Ritorto et al. (Ritorto et al. Screening of DUB activity and specificity by MALDI-TOF mass spectrometry. Nat. […] USP30 (25 ng/μl) tested against K48-linked diubiquitin (5.6 μM). USP30 was diluted in a buffer containing 40 mM Tris, 0.01% BSA, 1 mM DTT and K48 in 40 mM Tris, 0.01% BSA. The compounds were pre-incubated with the USP30 for 5 mins at room temp before the K48 dimer addition. The assay mixture was then incubated for 45 mins at room temp. The assay was stopped by the addition of TFA to a final concentration of 2% (v/v). […] Then 250 nl of these solutions were spotted onto an MTP AnchorChip 1,536 TF and this is analysed on the Bruker rapifleX MALDI-TOF.

[1] = target: recombinant USP30 (amino acids 57-517 of the human sequence) (Homo sapiens (Human), UniProt Q70CQ3); experiment: In vitro USP30 biochemical assay (Ubiquitin-Rhodamine)
recombinant USP30 (amino acids 57-517 of the human sequence), sequence (Q70CQ3 57-517): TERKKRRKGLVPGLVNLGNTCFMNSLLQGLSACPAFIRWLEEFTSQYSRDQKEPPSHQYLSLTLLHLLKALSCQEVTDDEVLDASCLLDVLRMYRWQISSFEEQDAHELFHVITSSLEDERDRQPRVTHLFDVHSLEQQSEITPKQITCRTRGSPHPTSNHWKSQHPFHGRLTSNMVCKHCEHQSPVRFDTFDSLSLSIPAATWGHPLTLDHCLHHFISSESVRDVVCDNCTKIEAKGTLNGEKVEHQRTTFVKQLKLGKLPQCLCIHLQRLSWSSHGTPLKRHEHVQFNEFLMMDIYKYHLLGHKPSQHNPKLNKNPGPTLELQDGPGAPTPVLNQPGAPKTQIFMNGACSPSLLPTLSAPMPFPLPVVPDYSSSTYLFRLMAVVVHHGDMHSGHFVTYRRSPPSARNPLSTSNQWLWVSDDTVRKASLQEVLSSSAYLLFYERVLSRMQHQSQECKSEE

[2] = USP30 IC50 μM (avg), Ubiquitin-Rhodamine substrate 25 nM, 1.5 nM recombinant USP30
[3] = read-out: USP30 IC50 μM (avg), Ubiquitin-Rhodamine substrate 25 nM, 1.5 nM recombinant USP30

USP30, sequence (Q70CQ3 whole entry): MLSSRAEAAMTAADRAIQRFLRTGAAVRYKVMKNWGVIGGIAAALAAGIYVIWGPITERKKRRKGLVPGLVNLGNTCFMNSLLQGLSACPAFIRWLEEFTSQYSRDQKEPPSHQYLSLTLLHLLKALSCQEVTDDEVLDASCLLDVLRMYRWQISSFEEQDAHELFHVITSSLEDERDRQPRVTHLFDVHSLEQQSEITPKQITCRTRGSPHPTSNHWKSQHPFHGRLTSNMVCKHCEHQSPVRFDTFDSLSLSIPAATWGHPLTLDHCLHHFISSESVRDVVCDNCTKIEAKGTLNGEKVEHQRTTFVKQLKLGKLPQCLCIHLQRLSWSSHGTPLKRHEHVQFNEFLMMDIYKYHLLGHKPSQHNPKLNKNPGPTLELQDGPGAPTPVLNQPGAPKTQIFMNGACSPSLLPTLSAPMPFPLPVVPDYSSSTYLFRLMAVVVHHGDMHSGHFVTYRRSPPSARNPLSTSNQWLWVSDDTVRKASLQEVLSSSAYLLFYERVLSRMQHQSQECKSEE

Structure (SMILES)	IC50 (USP30) [µM]	IC50 [1, 2] [µM]	IC50 [1, 3] [µM]
CC(C)(C)NS(=O)(=O)c1ccc(NC(=O)[C@H](Cc2c[nH]c3ccccc23)NC(=O)c2ccc(F)cc2)cc1 [Compound I-1, (S)-N-(1-(4-(N-tert-butylsulfamoyl)phenylamino)-3-(1H-indol-3-yl)-1-oxopropan-2-yl)-4-fluorobenzamide]	0.05 to 1		
CC(C)(C)CS(=O)(=O)c1ccc(NC(=O)[C@H](Cc2ccccc2)NC(=O)c2ccc(F)cc2)cc1 [Compound I-2, (S)-4-fluoro-N-(1-(4-(2,2-Dimethyl-propylsulfonyl)phenylamino)-1-oxo-3-phenylpropan-2-yl)benzamide]	0.05 to 1		
CC(C)(C)CS(=N)(=O)c1ccc(NC(=O)[C@H](Cc2ccccc2)NC(=O)c2ccc(F)cc2)cc1 (stereo partly drawn) [Compound I-3, N-((2S)-1-(4-(2,2-dimethylpropylsulfonimidoyl)phenylamino)-1-oxo-3-phenylpropan-2-yl)-4-fluorobenzamide]	> 10		
CC(C)(C)C[S+]([O-])c1ccc(NC(=O)[C@H](Cc2ccccc2)NC(=O)c2ccc(F)cc2)cc1 (stereo partly drawn) [Compound I-4, 4-fluoro-N-((2S)-1-(4-(neopentylsulfinyl)phenylamino)-1-oxo-3-phenylpropan-2-yl)benzamide]	0.05 to 1	1 to 10	
CCNS(=O)(=O)c1ccc(NC(=O)[C@H](Cc2ccccc2)NC(=O)c2ccc(F)cc2)cc1 [Compound I-5, (S)-N-(1-(4-(N-Ethylsulfamoyl)phenylamino)-1-oxo-3-phenylpropan-2-yl)-4-fluorobenzamide]	< 0.05	0.05 to 1	
O=C(N[C@@H](Cc1ccccc1)C(=O)Nc1ccc(S(=O)(=O)NC2CC2)cc1)c1ccc(F)cc1 [Compound I-6, (S)-N-(1-(4-(N-cyclopropylsulfamoyl)phenylamino)-1-oxo-3-phenylpropan-2-yl)-4-fluorobenzamide]	< 0.05		
O=C(N[C@@H](Cc1ccccc1)C(=O)Nc1ccc(S(=O)(=O)NC2CCC2)cc1)c1ccc(F)cc1 [Compound I-7, (S)-N-(1-(4-(N-cyclobutylsulfamoyl)phenylamino)-1-oxo-3-phenylpropan-2-yl)-4-fluorobenzamide]	< 0.05		
O=C(N[C@@H](Cc1ccccc1)C(=O)Nc1ccc(S(=O)(=O)NC2CCCC2)cc1)c1ccc(F)cc1 [Compound I-8, (S)-N-(1-(4-(N-cyclopentylsulfamoyl)phenylamino)-1-oxo-3-phenylpropan-2-yl)-4-fluorobenzamide]	< 0.05		
O=C(N[C@@H](Cc1ccccc1)C(=O)Nc1ccc(S(=O)(=O)NCC2CC2)cc1)c1ccc(F)cc1 [Compound I-9, (S)-N-(1-(4-(N-(cyclopropylmethyl)sulfamoyl)phenylamino)-1-oxo-3-phenylpropan-2-yl)-4-fluorobenzamide]	< 0.05		
CC(C)(CF)NS(=O)(=O)c1ccc(NC(=O)[C@H](Cc2ccccc2)NC(=O)c2ccc(F)cc2)cc1 [Compound I-10, (S)-4-Fluoro-N-(1-(4-(N-(1-fluoro-2-methylpropan-2-yl)sulfamoyl)phenylamino)-1-oxo-3-phenylpropan-2-yl)benzamide]	< 0.05		< 0.05
CC[C@@H](C)NS(=O)(=O)c1ccc(NC(=O)[C@H](Cc2ccccc2)NC(=O)c2ccc(F)cc2)cc1 [Compound I-12, N-((S)-1-((4-(N-((R)-sec-butyl)sulfamoyl)phenyl)amino)-1-oxo-3-phenylpropan-2-yl)-4-fluorobenzamide]	< 0.05		
CCC(C)(C)NS(=O)(=O)c1ccc(NC(=O)[C@H](Cc2ccccc2)NC(=O)c2ccc(F)cc2)cc1 [Compound I-24, (S)-4-fluoro-N-(1-oxo-1-(4-(N-tert-pentylsulfamoyl)phenylamino)-3-phenylpropan-2-yl)benzamide]	< 0.05		
O=C(N[C@@H](Cc1ccccc1)C(=O)Nc1ccc(S(=O)(=O)NC2CCCCC2)cc1)c1ccc(F)cc1 [Compound I-31, (S)-N-(1-(4-(N-cyclohexylsulfamoyl)phenylamino)-1-oxo-3-phenylpropan-2-yl)-4-fluorobenzamide]	0.05 to 1		
O=C(N[C@@H](Cc1ccccc1)C(=O)Nc1ccc(S(=O)(=O)Nc2ccccc2)cc1)c1ccc(F)cc1 [Compound I-32, (S)-4-fluoro-N-(1-oxo-3-phenyl-1-(4-(N-phenylsulfamoyl)phenylamino)propan-2-yl)benzamide]	0.05 to 1		
CC(C)(C)NS(=O)(=O)c1ccc(NC(=O)C2Cc3ncccc3N2C(=O)c2ccc(F)cc2)cc1 (centres unmarked) [Compound I-54, N-(4-(N-tert-butylsulfamoyl)phenyl)-1-(4-fluorobenzoyl)-2,3-dihydro-1H-pyrrolo[3,2-b]pyridine-2-carboxamide]	> 1		
CC(C)(C)NS(=O)(=O)c1ccc(NC(=O)[C@H](Cc2ccccc2)NC(=O)c2ccc(F)cc2)nc1 [Compound I-61, (S)-N-(1-(5-(N-tert-butylsulfamoyl)pyridin-2-ylamino)-1-oxo-3-phenylpropan-2-yl)-4-fluorobenzamide]	< 0.05		
CC(C)(C)NS(=O)(=O)c1ccc(NC(=O)[C@H](Cc2ccccc2)NC(=O)c2ccc(F)cc2)cn1 [Compound I-62, (S)-N-(1-(6-(N-tert-butylsulfamoyl)pyridin-3-ylamino)-1-oxo-3-phenylpropan-2-yl)-4-fluorobenzamide]	< 0.05		
CC(C)(C)NS(=O)(=O)c1ccc(NC(=O)[C@H](Cc2ccccc2)NC(=O)c2ccc(F)cc2)s1 [Compound I-63, (S)-N-(1-(5-(N-tert-butylsulfamoyl)thiophen-2-ylamino)-1-oxo-3-phenylpropan-2-yl)-4-fluorobenzamide]	0.05 to 1		
C[C@@H](NS(=O)(=O)c1ccc(NC(=O)[C@H](Cc2ccccc2)NC(=O)c2ccc(F)cc2)cc1)C1CC1 [Compound I-67, N-((S)-1-(4-(N-((R)-1-cyclopropylethyl)sulfamoyl)phenylamino)-1-oxo-3-phenylpropan-2-yl)-4-fluorobenzamide]	< 0.05		
CC(C)(C)NS(=O)(=O)c1ccc(NC(=O)[C@H](Cc2ccccc2)N2Cc3ccccc3C2=O)cc1 [Compound I-69, (S)-N-(4-(N-tert-butylsulfamoyl)phenyl)-2-(1-oxoisoindolin-2-yl)-3-phenylpropanamide]	1 to 10		
O=C(N[C@@H](Cc1ccccc1)C(=O)Nc1ccc(S(=O)(=O)N[C@H]2CCOC2)cc1)c1ccc(F)cc1 [Compound I-174, 4-fluoro-N-((S)-1-oxo-3-phenyl-1-(4-(N-((S)-tetrahydrofuran-3-yl)sulfamoyl)phenylamino)propan-2-yl)benzamide]			< 0.05
CC(C)(C#N)NS(=O)(=O)c1ccc(NC(=O)[C@H](Cc2ccccc2)NC(=O)c2ccc(F)cc2)cn1 [Compound I-176, (S)-N-(1-(6-(N-(2-cyanopropan-2-yl)sulfamoyl)pyridin-3-ylamino)-1-oxo-3-phenylpropan-2-yl)-4-fluorobenzamide]		0.05 to 1	
C#CC(C)(C)NS(=O)(=O)c1ccc(NC(=O)[C@H](Cc2ccccc2)NC(=O)c2ccc(F)cc2)cn1 [Compound I-177, (S)-4-fluoro-N-(1-(6-(N-(2-methylbut-3-yn-2-yl)sulfamoyl)pyridin-3-ylamino)-1-oxo-3-phenylpropan-2-yl)benzamide]		0.05 to 1	
O=C(N[C@@H](Cc1ccccc1)C(=O)Nc1ccc(S(=O)(=O)N[C@H]2CCOC2)nc1)c1ccc(F)cc1 [Compound I-178, 4-fluoro-N-((S)-1-oxo-3-phenyl-1-(6-(N-((S)-tetrahydrofuran-3-yl)sulfamoyl)pyridin-3-ylamino)propan-2-yl)benzamide]			< 0.05
O=C(N[C@@H](Cc1ccccc1)C(=O)Nc1ccc(S(=O)(=O)N[C@@H]2CCOC2)nc1)c1ccc(F)cc1 [Compound I-179, 4-fluoro-N-((S)-1-oxo-3-phenyl-1-(6-(N-((R)-tetrahydrofuran-3-yl)sulfamoyl)pyridin-3-ylamino)propan-2-yl)benzamide]		0.05 to 1	
COc1cc(NC(=O)[C@H](Cc2ccccc2)NC(=O)c2ccc(F)cc2)ccc1S(=O)(=O)NC(C)(C)C#N [Compound I-180, (S)-N-(1-(4-(N-(2-cyanopropan-2-yl)sulfamoyl)-3-methoxyphenylamino)-1-oxo-3-phenylpropan-2-yl)-4-fluorobenzamide]		0.05 to 1	
C#CC(C)(C)NS(=O)(=O)c1ccc(NC(=O)[C@H](Cc2ccccc2)NC(=O)c2ccc(F)cc2)cc1OC [Compound I-181, (S)-4-fluoro-N-(1-(3-methoxy-4-(N-(2-methylbut-3-yn-2-yl)sulfamoyl)phenylamino)-1-oxo-3-phenylpropan-2-yl)benzamide]		0.05 to 1	
COc1cc(NC(=O)[C@H](Cc2ccccc2)NC(=O)c2ccc(F)cc2)ccc1S(=O)(=O)N[C@H]1CCOC1 [Compound I-182, 4-fluoro-N-((S)-1-(3-methoxy-4-(N-((S)-tetrahydrofuran-3-yl)sulfamoyl)phenylamino)-1-oxo-3-phenylpropan-2-yl)benzamide]			< 0.05
COc1cc(NC(=O)[C@H](Cc2ccccc2)NC(=O)c2ccc(F)cc2)ccc1S(=O)(=O)N[C@@H]1CCOC1 [Compound I-183, 4-fluoro-N-((S)-1-(3-methoxy-4-(N-((R)-tetrahydrofuran-3-yl)sulfamoyl)phenylamino)-1-oxo-3-phenylpropan-2-yl)benzamide]			< 0.05
